Drawing on US20260226034A1 (The Rockefeller University, priority 2023, published 2026), this text covers IC50 for 54 compounds.

Molecules are shown by their SMILES. Like-named read-outs stand apart in the source and are kept apart here. Where only a bound is given, the exact number is not on record here.

This assay has as its target NSP14 (Severe acute respiratory syndrome coronavirus 2, UniProt P0DTD1). Nature of the assay: NSP14 MTase inhibition assay at 37° C. (MTase-Glo SAH detection). The assay is classed as biochemical, SARS-CoV-2. To be noted: 0.3 nM NSP14, 2.5 μM SAM, 2.5 μM GpppA RNA, read-out: Nsp14 Mtase Inh. IC50. As to the method:
NSP14 MTase assay at 37° C. (0.3 nM NSP14 as final enzyme concentration)
The NSP14 MTase assay at 37° C. is carried out in 384-well flat bottom polystyrene microplates (Greiner, 781075). Per well, 10 μl of 1×NSP14 reaction buffer (50 mM Tris-HCl, pH 7.5, 6 mM KCl, 1.25 mM MgCl2, 1 mM DTT, and 0.01% Tween-20) are dispensed in columns 1-23 using a Thermo Multidrop Combi dispenser (Thermo Scientific). 0.1 μl of serially diluted compounds in DMSO are dispensed into columns 1-22 of the assay microplates with a Janus 384 MDT NanoHead (PerkinElmer). In wells of column 23, which serve as negative controls, no compounds are added.
The NSP14 reaction is started by adding 4 μl of a 4× substrate solution containing S-adenosyl methionine (SAM, 10 μM) and GpppA RNA (10 μM) prepared in 1×NSP14 reaction buffer. Any addition of reagents is followed by a 30 second centrifugation at 500×g to ensure that all liquid was collected at the bottom of the well. The final concentrations of NSP14, SAM, and GpppA RNA are 0.3 nM, 2.5 μM, and 2.5 μM, respectively. The final reaction volume is 16 μl. Plates are sealed and incubated for 45 min at 37° C.
For SAH detection, 1 μl 5× MTase-Glo™ Reagent (Promega) is added to each well, plates are mixed for 1-2 minutes and incubated at room temperature for 30 minutes. 5 μl of room-temperature MTase-Glo™ Detection Solution (Promega) is added to each well, plates are mixed for 1-2 minutes and incubated at room temperature for 30 minutes. Luminescence signals of each well are recorded in relative light units (RLUs) using a Biotek Synergy Neo plate reader (BioTek, Winooski, VT). The SAH production is normalized against the positive control (PK, column 24) and negative control (NK, column 23) as follows: normalized % inhibition=100×(RLUsample-RLUaverageNK)/(RLUaveragePK-RLUaverageNK).

As a reminder, the IC50 is the point on the concentration scale where inhibition reaches its midpoint. Regarding `Cc1c(S(=O)(=O)c2ccc3[nH]ncc3c2)cc(C(=O)N[C@@H]2CCN(c3cnnc(Cl)c3)C2)n1C` [A.118], under “45 min at 37° C.”, the IC50 is < 0.15 nM.

With `Cc1c(S(=O)(=O)c2ccc3[nH]ncc3c2)cc(C(=O)NCc2ccccc2)n1C` [B.67], where the note is “37° C.”, the IC50 came to 2.6 nM.

Turning to `Cc1c(S(=O)(=O)c2ccc3[nH]ncc3c2)cc(C(=O)N[C@H]2CN(c3ncc(F)cn3)C[C@H]2F)n1C` [A.48], under “45 min at 37° C.”, the IC50 amounted to 33 nM.

Take `Cc1c(S(=O)(=O)c2ccc3[nH]ncc3c2)cc(C(=O)NCc2n[nH]c(=O)c3ccccc23)n1C` [B.121]: for the setting “37° C.”, the IC50 was < 0.15 nM.

Turning to `Cc1c(S(=O)(=O)c2ccc(C(C)O)cc2)cc(C(=O)NCc2cccc3cnn(C)c23)n1C` (stereo not drawn) [A.32, 4-[4-(1-hydroxyethyl)phenyl]sulfonyl-1,5-dimethyl-N-[(1-methylindazol-7-yl)methyl]pyrrole-2-carboxamide], the IC50 (45 min at 37° C.) is 389 nM.

In the case of `COc1cnc(N2CC[C@@H](NC(=O)c3cc(S(=O)(=O)c4ccc5[nH]ncc5c4)c(C)n3C)C2)cn1` [A.113], for the setting “45 min at 37° C.”, the IC50 is < 0.15 nM.

As to `Cc1c(S(=O)(=O)c2ccc3[nH]ncc3c2)cc(C(=O)NC2(CO)CCN(c3ncc(F)cn3)C2)n1C` (single isomer, unassigned) [A.117, 4-((1H-indazol-5-yl)sulfonyl)-N-(1-(5-fluoropyrimidin-2-yl)-3-(hydroxymethyl)pyrrolidin-3-yl)-1,5-dimethyl-1H-pyrrole-2-carboxamide], the IC50 (45 min at 37° C.) is 2.8 nM.

`Cc1c(S(=O)(=O)c2ccc3ccc(C#N)cc3c2)cc(C(=O)NCc2c(F)ccc3cnn(C)c23)n1C` [B.128]: the IC50 (37° C.) came to 0.93 nM.

Regarding `Cn1ncc(Cl)c1CNC(=O)c1cc(S(=O)(=O)c2ccc3[nH]ncc3c2)c2n1CCC2` [B.191], for the setting “37° C.”, the IC50 is 8.6 nM.

`Cc1c(S(=O)(=O)c2ccc3[nH]ncc3c2)cc(C(=O)N[C@H](C)c2c(F)cccc2F)n1C` (single isomer, unassigned) [B.65]: for the setting “37° C.”, the IC50 stood at 65 nM.

For the compound `Cc1c(S(=O)(=O)c2ccc3[nH]ncc3c2)cc(C(=O)NCc2nccc3cnn(C)c23)n1C` [B.24], the IC50 (37° C.) was 0.62 nM.

In the case of `Cc1c(S(=O)(=O)c2cc(C#N)c3[nH]ncc3c2)cc(C(=O)NCc2c(F)ccc3cnn(C4CC4)c23)n1C` [B.98], the IC50 (37° C.) amounted to 0.5 nM.

With `Cc1c(S(=O)(=O)c2ccc3[nH]ncc3c2)cc(C(=O)NCc2cccc3cnn(C4CC4)c23)n1C` [A.5], the IC50 (45 min at 37° C.) was determined as 1.5 nM.

With `Cc1c(S(=O)(=O)c2ccccc2)cc(C(=O)NCc2c(F)ccc3cnn(C)c23)n1C` [A.7, N-((6-fluoro-1-methyl-1H-indazol-7-yl)methyl)-1,5-dimethyl-4-(phenylsulfonyl)-1H-pyrrole-2-carboxamide], the IC50 (45 min at 37° C.) was 1.7 nM.

For `Cc1c(S(=O)(=O)c2ccc3c(cnn3C)c2)cc(C(=O)NCc2cccc3cnn(C)c23)n1C` [A.12], where the note is “45 min at 37° C.”, the IC50 stood at 5.6 nM.

As for `Cc1c(S(=O)(=O)c2ccc3[nH]ncc3c2)cc(C(=O)NCCN(C)c2ncc(F)cn2)n1C` [B.198], for the setting “37° C.”, the IC50 worked out at 16 nM.

For the compound `Cc1c(S(=O)(=O)c2ccc3[nH]ncc3c2)cc(C(=O)N[C@H]2CN(c3ncc(F)cn3)CC23CC3)n1C` [A.62], the IC50 (45 min at 37° C.) was 0.41 nM.

With `Cc1c(S(=O)(=O)c2ccc3[nH]ncc3c2)cc(C(=O)NC2CN(c3ncc(F)cn3)C2)n1C` [A.36], the 50% inhibitory concentration (IC50) (45 min at 37° C.) worked out at 2.2 nM.

In the case of `Cc1c(S(=O)(=O)c2ccc3[nH]ncc3c2)cc(C(=O)N[C@@H]2CCN(c3ccnc(C(F)F)c3)C2)n1C` [A.107], the IC50 (45 min at 37° C.) is 0.17 nM.

As for `Cc1c(S(=O)(=O)c2ccc3[nH]ncc3c2)cc(C(=O)NCc2c(F)ccc3occc23)n1C` [A.2], the IC50 (45 min at 37° C.) is 0.32 nM.

`Cc1c(S(=O)(=O)c2ccc3[nH]ncc3c2)cc(C(=O)N[C@H]2CCc3c(F)ccc(F)c32)n1C` (single isomer, unassigned) [B.139]: the IC50 (37° C.) was determined as 1.3 nM.

`CC(=O)Nc1ccc(S(=O)(=O)c2cc(C(=O)NCc3c(F)ccc4occc34)n(C)c2C)cc1` [A.30]: where the note is “45 min at 37° C.”, the IC50 was found to be 243 nM.

For the compound `Cc1c(S(=O)(=O)c2ccc3c(cnn3C)c2)cc(C(=O)NCc2c(F)ccc3cnn(C)c23)n1C` [A.18], the IC50 (45 min at 37° C.) stood at 18 nM.

On to `Cc1c(S(=O)(=O)c2cc3cn[nH]c3cn2)cc(C(=O)NCc2cccc3cnn(C4CC4)c23)n1C` [B.42], for which, for the setting “37° C.”, the IC50 came out at 9.3 nM.

On to `Cc1c(S(=O)(=O)c2ccc3[nH]ncc3c2)cc(C(=O)N[C@@H]2CCN(c3cnc(F)cn3)C2)n1C` [A.50], for which the IC50 (45 min at 37° C.) is < 0.15 nM.

With `Cc1c(S(=O)(=O)c2ccc3[nH]ncc3c2)cc(C(=O)NCc2ccccc2F)n1C` [B.76], the IC50 (37° C.) is 1.6 nM.

Turning to `Cc1c(S(=O)(=O)c2ccc3[nH]ncc3c2)cc(C(=O)NCc2cccc3c2N(C)C(=O)CC3)n1C` [B.15], the IC50 (37° C.) came to 14 nM.

Regarding `Cc1c(S(=O)(=O)c2ccc3c(c2)c(O)nn3C)cc(C(=O)NCc2c(F)ccc3cnn(C4CC4)c23)n1C` [B.111], where the note is “37° C.”, the IC50 was determined as 142 nM.

Regarding `Cc1c(S(=O)(=O)c2cc(C(F)F)c3[nH]ncc3c2)cc(C(=O)NCc2cccc3cnn(C4CC4)c23)n1C` [B.60], where the note is “37° C.”, the half-inhibitory concentration (IC50) came out at 5.3 nM.

For `Cc1c(S(=O)(=O)c2cc(F)c3[nH]ncc3c2)cc(C(=O)N[C@@H](C)c2cccc3cnn(C4CC4)c23)n1C` (single isomer, unassigned) [B.88], the IC50 (37° C.) worked out at 22 nM.

Take `Cc1c(S(=O)(=O)c2ccc3[nH]ncc3c2)cc(C(=O)NCc2ccc3ncnn3c2)n1C` [B.149]: the IC50 (37° C.) was determined as 18 nM.

Consider `Cc1c(S(=O)(=O)c2ccc3[nH]ncc3c2)cc(C(=O)N[C@@H]2CCN(c3ccc(F)nc3)C2)n1C` [A.56], for which, under “45 min at 37° C.”, the IC50 amounted to 0.2 nM.

With `Cc1c(S(=O)(=O)c2ccc3[nH]ncc3c2)cc(C(=O)N[C@H]2CN(c3ncc(F)cn3)C[C@H]2O)n1C` [A.89], under “45 min at 37° C.”, the IC50 came to 14 nM.

For the compound `Cc1c(S(=O)(=O)c2ccc3[nH]ncc3c2)cc(C(=O)NCc2cncn2C)n1C` [B.146], where the note is “37° C.”, the IC50 came out at 29 nM.

Regarding `Cc1c(S(=O)(=O)c2ccc3[nH]ncc3c2)cc(C(=O)NCc2ncnc3ncn(C)c23)n1C` [B.129], the IC50 (37° C.) is < 0.15 nM.

Consider `Cc1c(S(=O)(=O)c2ccc3[nH]ncc3c2)cc(C(=O)N[C@@H]2CCN(c3ncc(F)cn3)C2)n1CCO` [A.90], for which, where the note is “45 min at 37° C.”, the IC50 was < 0.15 nM.

With `Cc1c(S(=O)(=O)c2ccc3[nH]ncc3c2)cc(C(=O)NCc2ccn(C(F)F)n2)n1C` [B.160], the IC50 (37° C.) is 149 nM.

For `Cc1c(S(=O)(=O)c2ccc3[nH]ncc3c2)cc(C(=O)N[C@@H]2CCN(c3nccnc3C#N)C2)n1C` [A.120], where the note is “45 min at 37° C.”, the IC50 came out at 0.26 nM.

Take `Cc1c(S(=O)(=O)c2ccc3[nH]ncc3c2)cc(C(=O)NCc2cccc3c2N(C)C(=O)C32CC2)n1C` [B.32]: the IC50 (37° C.) was determined as 0.18 nM.

Regarding `Cc1nn(C)cc1CNC(=O)c1cc(S(=O)(=O)c2ccc3[nH]ncc3c2)c(C)n1C` [B.152], the IC50 (37° C.) came to 20 nM.

Take `Cc1c(S(=O)(=O)c2cc(F)c3[nH]ncc3c2)cc(C(=O)NCc2c[nH]c(=O)c3ccccc23)n1C` [B.109]: the IC50 (37° C.) was 0.24 nM.

Regarding `Cc1c(S(=O)(=O)c2cc(Cl)c3[nH]ncc3c2)cc(C(=O)N[C@@H]2CCN(c3ncc(F)cn3)C2)n1C` [A.41], the IC50 (45 min at 37° C.) was < 0.15 nM.

In the case of `CCn1nccc1CNC(=O)c1cc(S(=O)(=O)c2ccc3[nH]ncc3c2)c(C)n1C` [B.166], the IC50 (37° C.) was found to be 0.95 nM.

For `Cn1ncc(Cl)c1CNC(=O)c1cc(S(=O)(=O)c2cccc(C#N)c2)c2n1CCC2` [B.192], the IC50 (37° C.) amounted to 98 nM.

Regarding `Cc1c(S(=O)(=O)c2ccc3[nH]ncc3c2)cc(C(=O)N[C@@H]2CCN(c3nccc(C(F)F)n3)C2)n1C` [A.122], the IC50 (45 min at 37° C.) came out at 0.3 nM.

As to `Cc1c(S(=O)(=O)c2ccc3[nH]ncc3c2)cc(C(=O)NCc2c(F)cnn2C)n1C` [B.154], the IC50 (37° C.) came to 0.56 nM.

For the compound `Cc1c(S(=O)(=O)c2ccc3[nH]ncc3c2)cc(C(=O)NCc2cn(C)c(=O)cn2)n1C` [B.156], under “37° C.”, the IC50 worked out at 6 nM.

With `Cc1c(S(=O)(=O)c2cc(Cl)c3[nH]ncc3c2)cc(C(=O)NCc2ccnn2C)n1C` [B.134], the IC50 (37° C.) came to 0.18 nM.

Regarding `COCc1cc(S(=O)(=O)c2cc(C(=O)NCc3cccc4cnn(C5CC5)c34)n(C)c2C)cc2cn[nH]c12` [B.93], under “37° C.”, the IC50 was determined as 68 nM.

As to `Cc1c(S(=O)(=O)c2ccc3[nH]ncc3c2)cc(C(=O)NCc2c[nH]c(=O)c3cnn(C)c23)n1C` [B.115], the IC50 (37° C.) came to 0.17 nM.

For the compound `Cc1c(S(=O)(=O)c2cccc(Cl)c2)cc(C(=O)NCc2cccc3cnn(C)c23)n1C` [A.9], the IC50 (45 min at 37° C.) is 2.1 nM.

In the case of `Cc1c(S(=O)(=O)c2ccc3[nH]ncc3c2)cc(C(=O)NCc2cccc3c(F)nn(C4CC4)c23)n1C` [B.35], the IC50 (37° C.) amounted to 3.3 nM.

Turning to `Cc1c(S(=O)(=O)c2ccc3[nH]ncc3c2)cc(C(=O)NCc2ccnn2C)n1C` [B.100], where the note is “37° C.”, the IC50 was 12 nM.

On to `Cc1c(S(=O)(=O)c2ccc3[nH]ncc3c2)cc(C(=O)NC2CCc3cc(C(F)(F)F)ccc32)n1C` (racemic) [B.71], for which the IC50 (37° C.) is 36 nM.
